What was measured:
Type in all cases: functional
[1] = system: Mus musculus; assay: (§1) Immuno-regulatory activity in cyclophosphamide-induced immunocompromised Kunming mouse model assessed as body weight at 50 mg/kg administered once daily via gavage for 30 consecutive days measured after 12 hrs of fasting following last dose (reference value: 30.3 +/- 2.47 mg)
[2] = system: Mus musculus; assay: (§2) Immuno-regulatory activity in cyclophosphamide-induced immunocompromised Kunming mouse model assessed as SOD activity in liver at 200 mg/kg administered once daily via gavage for 30 consecutive days measured after 12 hrs of fasting following last dose on day 30 (reference value: 160.65 +/- 3.12)
[3] = system: Mus musculus; assay: Immuno-regulatory activity in cyclophosphamide-induced immunocompromised Kunming mouse model assessed as SOD activity in serum at 50 mg/kg administered once daily via gavage for 30 consecutive days measured after 12 hrs of fasting following last dose on day 30 (reference value: 91.98 +/- 3.32)
[4] = system: Mus musculus; assay: (§3) Immuno-regulatory activity in cyclophosphamide-induced immunocompromised Kunming mouse model assessed as concanavalin A-induced lymphocyte proliferation stimulate index in spleen at 200 mg/kg administered once daily via gavage for 30 consecutive days measured after 12 hrs of fasting following last dose on day 30 by MTT assay (reference value: 0.054 +/- 0.001)
[5] = system: Mus musculus; assay: Immuno-regulatory activity in cyclophosphamide-induced immunocompromised Kunming mouse model assessed as GSH-PX activity in kidney at 200 mg/kg administered once daily via gavage for 30 consecutive days measured after 12 hrs of fasting following last dose on day 30 (reference value: 10.12 +/- 0.25)
[6] = system: Mus musculus; assay: as §1, with “recovery from spleen damage by measuring spleen” for “body”, “weight index” for “weight”, “4.59” for “30.3”, “0.28)” for “2.47 mg)”
[7] = system: Mus musculus; assay: (§4) Immuno-regulatory activity in cyclophosphamide-induced immunocompromised Kunming mouse model assessed as GSH-PX activity in spleen at 50 mg/kg administered once daily via gavage for 30 consecutive days measured after 12 hrs of fasting following last dose on day 30 (reference value: 7.97 +/- 1.21)
[8] = system: Mus musculus; assay: (§5) Immuno-regulatory activity in cyclophosphamide-induced immunocompromised Kunming mouse model assessed as SOD activity in spleen at 200 mg/kg administered once daily via gavage for 30 consecutive days measured after 12 hrs of fasting following last dose on day 30 (reference value: 94.84 +/- 3.28)
[9] = system: Mus musculus; assay: as §1, with “peritoneal macrophage phagocytosis rate” for “body weight”, “dose by Giemsa staining based assay” for “dose”, “21.33” for “30.3”, “0.98%)” for “2.47 mg)”
[10] = system: Mus musculus; assay: as §1, with “macrophage elimination ability against foreign substances by measuring carbon clearance index” for “body weight”, “2.68” for “30.3”, “0.3)” for “2.47 mg)”
[11] = system: Mus musculus; assay: Immuno-regulatory activity in cyclophosphamide-induced immunocompromised Kunming mouse model assessed as GSH-PX activity in serum at 200 mg/kg administered once daily via gavage for 30 consecutive days measured after 12 hrs of fasting following last dose on day 30 (reference value: 5.66 +/- 0.17)
[12] = system: Mus musculus; assay: (§6) Immuno-regulatory activity in cyclophosphamide-induced immunocompromised Kunming mouse model assessed as body weight at 200 mg/kg administered once daily via gavage for 30 consecutive days measured after 12 hrs of fasting following last dose (reference value: 30.3 +/- 2.47 mg)
[13] = system: Mus musculus; assay: Immuno-regulatory activity in cyclophosphamide-induced immunocompromised Kunming mouse model assessed as MDA content in liver at 200 mg/kg administered once daily via gavage for 30 consecutive days measured after 12 hrs of fasting following last dose on day 30 (reference value: 3.34 +/- 0.18)
[14] = system: Mus musculus; assay: Immuno-regulatory activity in cyclophosphamide-induced immunocompromised Kunming mouse model assessed as GSH-PX activity in spleen at 200 mg/kg administered once daily via gavage for 30 consecutive days measured after 12 hrs of fasting following last dose on day 30 (reference value: 7.97 +/- 1.21)
[15] = system: Mus musculus; assay: Immuno-regulatory activity in cyclophosphamide-induced immunocompromised Kunming mouse model assessed as MDA content in spleen at 200 mg/kg administered once daily via gavage for 30 consecutive days measured after 12 hrs of fasting following last dose on day 30 (reference value: 4.9 +/- 0.11)
[16] = system: Mus musculus; assay: Immuno-regulatory activity in cyclophosphamide-induced immunocompromised Kunming mouse model assessed as GSH-PX activity in liver at 200 mg/kg administered once daily via gavage for 30 consecutive days measured after 12 hrs of fasting following last dose on day 30 (reference value: 9.52 +/- 0.26)
[17] = system: Mus musculus; assay: Immuno-regulatory activity in cyclophosphamide-induced immunocompromised Kunming mouse model assessed as GSH-PX activity in serum at 50 mg/kg administered once daily via gavage for 30 consecutive days measured after 12 hrs of fasting following last dose on day 30 (reference value: 5.66 +/- 0.17)
[18] = system: Mus musculus; assay: Immuno-regulatory activity in cyclophosphamide-induced immunocompromised Kunming mouse model assessed as MDA content in kidney at 50 mg/kg administered once daily via gavage for 30 consecutive days measured after 12 hrs of fasting following last dose on day 30 (reference value: 2.35 +/- 0.06)
[19] = system: Mus musculus; assay: as §6, with “peritoneal macrophage phagocytosis index” for “body weight”, “dose by Giemsa staining based assay” for “dose”, “0.5” for “30.3”, “0.03)” for “2.47 mg)”
[20] = system: Mus musculus; assay: as §2, with “enhancement of B cell-mediated humoral immunity by measuring SRBC half hemolysis value” for “SOD activity in liver”, “days and SRBC immunization on day 26” for “days”, “173.42” for “160.65”, “7.75)” for “3.12)”
[21] = system: Mus musculus; assay: Immuno-regulatory activity in cyclophosphamide-induced immunocompromised Kunming mouse model assessed as SOD activity in kidney at 200 mg/kg administered once daily via gavage for 30 consecutive days measured after 12 hrs of fasting following last dose on day 30 (reference value: 198.82 +/- 9.98)
[22] = system: Mus musculus; assay: as §6, with “peritoneal macrophage phagocytosis rate” for “body weight”, “dose by Giemsa staining based assay” for “dose”, “21.33” for “30.3”, “0.98%)” for “2.47 mg)”
[23] = system: Mus musculus; assay: Immuno-regulatory activity in cyclophosphamide-induced immunocompromised Kunming mouse model assessed as MDA content in spleen at 50 mg/kg administered once daily via gavage for 30 consecutive days measured after 12 hrs of fasting following last dose on day 30 (reference value: 4.9 +/- 0.11)
[24] = system: Mus musculus; assay: (§7) Immuno-regulatory activity in cyclophosphamide-induced immunocompromised Kunming mouse model assessed as enhancement of T cell-mediated delayed-type hypersensitivity by measuring increase in paw weight at 50 mg/kg administered once daily via gavage for 30 consecutive days and SRBC immunization on day 26 measured after 12 hrs of fasting following last dose on day 30 relative to control
[25] = system: Mus musculus; assay: Immuno-regulatory activity in cyclophosphamide-induced immunocompromised Kunming mouse model assessed as GSH-PX activity in liver at 50 mg/kg administered once daily via gavage for 30 consecutive days measured after 12 hrs of fasting following last dose on day 30 (reference value: 9.52 +/- 0.26)
[26] = system: Mus musculus; assay: Immuno-regulatory activity in cyclophosphamide-induced immunocompromised Kunming mouse model assessed as SOD activity in spleen at 50 mg/kg administered once daily via gavage for 30 consecutive days measured after 12 hrs of fasting following last dose on day 30 (reference value: 94.84 +/- 3.28)
[27] = system: Mus musculus; assay: as §6, with “recovery from spleen damage by measuring spleen” for “body”, “weight index” for “weight”, “4.59” for “30.3”, “0.28)” for “2.47 mg)”
[28] = system: Mus musculus; assay: as §6, with “recovery from thymus damage by measuring thymus” for “body”, “weight index” for “weight”, “0.98” for “30.3”, “0.14)” for “2.47 mg)”
[29] = system: Mus musculus; assay: as §4, with “enhancement of B cell-mediated humoral immunity by measuring antibody producing cells” for “GSH-PX activity”, “spleen against SRBC” for “spleen”, “0.48” for “7.97”, “0.05)” for “1.21)”
[30] = system: Mus musculus; assay: as §6, with “macrophage elimination ability against foreign substances by measuring carbon clearance index” for “body weight”, “2.68” for “30.3”, “0.3)” for “2.47 mg)”
[31] = system: Mus musculus; assay: Immuno-regulatory activity in cyclophosphamide-induced immunocompromised Kunming mouse model assessed as SOD activity in liver at 50 mg/kg administered once daily via gavage for 30 consecutive days measured after 12 hrs of fasting following last dose on day 30 (reference value: 160.65 +/- 3.12)
[32] = system: Mus musculus; assay: as §1, with “recovery from thymus damage by measuring thymus” for “body”, “weight index” for “weight”, “0.98” for “30.3”, “0.14)” for “2.47 mg)”
[33] = system: Mus musculus; assay: Immuno-regulatory activity in cyclophosphamide-induced immunocompromised Kunming mouse model assessed as SOD activity in kidney at 50 mg/kg administered once daily via gavage for 30 consecutive days measured after 12 hrs of fasting following last dose on day 30 (reference value: 198.82 +/- 9.98)
[34] = system: Mus musculus; assay: Immuno-regulatory activity in cyclophosphamide-induced immunocompromised Kunming mouse model assessed as SOD activity in serum at 200 mg/kg administered once daily via gavage for 30 consecutive days measured after 12 hrs of fasting following last dose on day 30 (reference value: 91.98 +/- 3.32)
[35] = system: Mus musculus; assay: as §7, with “B” for “T”, “humoral immunity” for “delayed-type hypersensitivity”, “SRBC half hemolysis value” for “increase in paw weight”, “(reference value: 173.42 +/- 7.75)” for “relative to control”
[36] = system: Mus musculus; assay: as §3, with “50” for “200”
[37] = system: Mus musculus; assay: as §7, with “200” for “50”
[38] = system: Mus musculus; assay: Immuno-regulatory activity in cyclophosphamide-induced immunocompromised Kunming mouse model assessed as MDA content in liver at 50 mg/kg administered once daily via gavage for 30 consecutive days measured after 12 hrs of fasting following last dose on day 30 (reference value: 3.34 +/- 0.18)
[39] = system: Mus musculus; assay: as §1, with “peritoneal macrophage phagocytosis index” for “body weight”, “dose by Giemsa staining based assay” for “dose”, “0.5” for “30.3”, “0.03)” for “2.47 mg)”
[40] = system: Mus musculus; assay: Immuno-regulatory activity in cyclophosphamide-induced immunocompromised Kunming mouse model assessed as GSH-PX activity in kidney at 50 mg/kg administered once daily via gavage for 30 consecutive days measured after 12 hrs of fasting following last dose on day 30 (reference value: 10.12 +/- 0.25)
[41] = system: Mus musculus; assay: Immuno-regulatory activity in cyclophosphamide-induced immunocompromised Kunming mouse model assessed as MDA content in serum at 200 mg/kg administered once daily via gavage for 30 consecutive days measured after 12 hrs of fasting following last dose on day 30 (reference value: 2.77 +/- 0.05)
[42] = system: Mus musculus; assay: Immuno-regulatory activity in cyclophosphamide-induced immunocompromised Kunming mouse model assessed as MDA content in serum at 50 mg/kg administered once daily via gavage for 30 consecutive days measured after 12 hrs of fasting following last dose on day 30 (reference value: 2.77 +/- 0.05)
[43] = system: Mus musculus; assay: as §5, with “enhancement of B cell-mediated humoral immunity by measuring antibody producing cells” for “SOD activity”, “spleen against SRBC” for “spleen”, “0.48” for “94.84”, “0.05)” for “3.28)”
[44] = system: Mus musculus; assay: Immuno-regulatory activity in cyclophosphamide-induced immunocompromised Kunming mouse model assessed as MDA content in kidney at 200 mg/kg administered once daily via gavage for 30 consecutive days measured after 12 hrs of fasting following last dose on day 30 (reference value: 2.35 +/- 0.06)

How did the Activity [1] turn out when `O=C(O)C1c2cc(O)c(O)c3sc4c5c(O)[nH]c6cc(O)c(O)c(c65)c5c6ccc7ccc1c(c76)n(c23)c45` (centres undefined) was run?
Its Activity is 32.9 g.

And the Activity [2]?
Its Activity is 202.26.

What about the Activity [3] of the same compound?
The Activity was 94.15.

What about the Activity_index [4] of the same compound?
Its Activity_index is 0.072.

And the Activity [5]?
Its Activity is 16.79.

And the Activity_index [6]?
Its Activity_index is 4.61 mg/g.

And the Activity [7]?
Its Activity is 8.76.

What about the Activity [8] of the same compound?
The Activity was 110.54.

And the Activity [9]?
Its Activity is 22.14%.

And the Activity_index [10]?
Its Activity_index is 2.95.

And the Activity [11]?
The Activity was 7.27.

And the Activity [12]?
The Activity was 35.7 g.

And the Activity [13]?
Its Activity is 2.25.

And the Activity [14]?
Its Activity is 11.99.

And the Activity [15]?
Its Activity is 3.13.

What about the Activity [16] of the same compound?
Its Activity is 16.1.

What about the Activity [17] of the same compound?
Its Activity is 5.76.

And the Activity [18]?
Its Activity is 2.07.

And the Activity_index [19]?
Its Activity_index is 0.79.

What about the Activity [20] of the same compound?
The Activity was 182.25.

And the Activity [21]?
Its Activity is 233.49.

What about the Activity [22] of the same compound?
Its Activity is 26.31%.

And the Activity [23]?
Its Activity is 4.54.

What about the Activity [24] of the same compound?
The Activity was 42.87%.

What about the Activity [25] of the same compound?
The Activity was 9.76.

What about the Activity [26] of the same compound?
The Activity was 106.25.

What about the Activity_index [27] of the same compound?
Its Activity_index is 5.13 mg/g.

What about the Activity_index [28] of the same compound?
The Activity_index was 1.37 mg/g.

What about the Activity [29] of the same compound?
The Activity was 0.52.

And the Activity_index [30]?
Its Activity_index is 3.54.

What about the Activity [31] of the same compound?
The Activity was 174.51.

What about the Activity_index [32] of the same compound?
The Activity_index was 1.01 mg/g.

What about the Activity [33] of the same compound?
The Activity was 218.42.

What about the Activity [34] of the same compound?
The Activity was 104.09.

And the Activity [35]?
The Activity was 175.62.

What about the Activity_index [36] of the same compound?
The Activity_index was 0.061.

And the Activity [37]?
Its Activity is 79.3%.

What about the Activity [38] of the same compound?
Its Activity is 2.99.

What about the Activity_index [39] of the same compound?
The Activity_index was 0.53.

What about the Activity [40] of the same compound?
The Activity was 11.57.

What about the Activity [41] of the same compound?
The Activity was 2.

What about the Activity [42] of the same compound?
Its Activity is 2.66.

What about the Activity [43] of the same compound?
Its Activity is 0.62.

What about the Activity [44] of the same compound?
The Activity was 1.83.

Source: ChEMBL document CHEMBL4007479, “Immunoregulatory effect assessment of a novel melanin and its carboxymethyl derivative” (2017)
